In PubChem BioAssay AID2060510 (Molecular Pharmacology Branch, DTP, NCI, 2025):
Where “and” joins values, the source holds several entries; their conditions need not be identical. Identical values can stand only once.

Tested on: 439559-082-T-J2-PDC spheroids viability
Experiment: Anticancer human tumor 439559-082-T-J2-PDC patient-derived colon adenocarcinoma cell line growth inhibition [GQUAD]
Details: for viability, T/C: stronger effect = lower value; active means viability on the fitted dose curve at most 10% of control; inactive means the rest
How it was run: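 Tumor cells were grown as complex spheroids with HUVEC endothelial cells and mesenchymal stem cells as stroma. G-quadruplex stabilizers were combined with targeted agents over half-log dilutions from near the clinical Cmax, or from 10 microM.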

[1] = curve of first compound, second compound 0.0316 µM
[2] = curve of first compound, second compound 0.1 µM
[3] = curve of first compound, second compound 0.316 µM
[4] = curve of first compound, second compound 1 µM
[5] = curve of first compound, second compound 3.16 µM
[6] = curve of first compound, second compound 10 µM
[7] = second compound 0.0316 µM, first compound 0.0316 µM
[8] = second compound 0.0316 µM, first compound 0.1 µM
[9] = second compound 0.0316 µM, first compound 0.316 µM
[10] = second compound 0.0316 µM, first compound 1 µM
[11] = second compound 0.0316 µM, first compound 3.16 µM
[12] = second compound 0.0316 µM, first compound 10 µM
[13] = second compound 0.1 µM, first compound 0.0316 µM
[14] = second compound 0.1 µM, first compound 0.1 µM
[15] = second compound 0.1 µM, first compound 0.316 µM
[16] = second compound 0.1 µM, first compound 1 µM
[17] = second compound 0.1 µM, first compound 3.16 µM
[18] = second compound 0.1 µM, first compound 10 µM
[19] = second compound 0.316 µM, first compound 0.0316 µM
[20] = second compound 0.316 µM, first compound 0.1 µM
[21] = second compound 0.316 µM, first compound 0.316 µM
[22] = second compound 0.316 µM, first compound 1 µM
[23] = second compound 0.316 µM, first compound 3.16 µM
[24] = second compound 0.316 µM, first compound 10 µM
[25] = second compound 1 µM, first compound 0.0316 µM
[26] = second compound 1 µM, first compound 0.1 µM
[27] = second compound 1 µM, first compound 0.316 µM
[28] = second compound 1 µM, first compound 1 µM
[29] = second compound 1 µM, first compound 3.16 µM
[30] = second compound 1 µM, first compound 10 µM
[31] = second compound 3.16 µM, first compound 0.0316 µM
[32] = second compound 3.16 µM, first compound 0.1 µM
[33] = second compound 3.16 µM, first compound 0.316 µM
[34] = second compound 3.16 µM, first compound 1 µM
[35] = second compound 3.16 µM, first compound 3.16 µM
[36] = second compound 3.16 µM, first compound 10 µM
[37] = second compound 10 µM, first compound 0.0316 µM
[38] = second compound 10 µM, first compound 0.1 µM
[39] = second compound 10 µM, first compound 0.316 µM
[40] = second compound 10 µM, first compound 1 µM
[41] = second compound 10 µM, first compound 3.16 µM
[42] = second compound 10 µM, first compound 10 µM
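Further: spheroids exposed to the agents for 7 days before readout.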
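Wherever viability, T/C is given: percent of luminescence signal in DMSO vehicle wells taken as 100% viability.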

Cc1cccc(N(C)C(=O)C2C(O)CCN2c2nc(C)cc(C(F)(F)F)c2C#N)c1 (stereo not drawn) + CN(C)c1ccc(Nc2c3ccc(NC(=O)CCN4CCCC4)cc3nc3cc(NC(=O)CCN4CCCC4)ccc23)cc1
inactive: viability, T/C [7] 102% | viability, T/C [8] 87.8% | viability, T/C [9] 97.3% | viability, T/C [10] 89.8% | viability, T/C [11] 94.5% | viability, T/C [12] 99.5% | viability, T/C [13] 109% | viability, T/C [14] 100% | viability, T/C [15] 94.6% | viability, T/C [16] 92.1% | viability, T/C [17] 95.5% | viability, T/C [18] 109% | viability, T/C [19] 84.5% | viability, T/C [20] 98.7% | viability, T/C [21] 101% | viability, T/C [22] 96.7% | viability, T/C [23] 95.2% | viability, T/C [24] 94.3% | viability, T/C [25] 96.4% | viability, T/C [26] 102% | viability, T/C [27] 97.5% | viability, T/C [28] 99.3% | viability, T/C [29] 96.6% | viability, T/C [30] 93.9% | viability, T/C [31] 112% | viability, T/C [32] 93.5% | viability, T/C [33] 101% | viability, T/C [34] 89.7% | viability, T/C [35] 107% | viability, T/C [36] 92.1% | viability, T/C [37] 93.6% | viability, T/C [38] 87.1% | viability, T/C [39] 100% | viability, T/C [40] 102% | viability, T/C [41] 94% | viability, T/C [42] 91.8%
> 10 µM: IC50 [1] | IC50 [2] | IC50 [3] | IC50 [4] | IC50 [5] | IC50 [6]

CCCS(=O)(=O)Nc1ccc(F)c(C(=O)c2c[nH]c3ncc(-c4ccc(Cl)cc4)cc23)c1F
3.43 µM and > 10 µM: IC50 (curve of compound)
inactive: viability, T/C (compound 0.0316 µM) 96.1% and 95.7% and 105% | viability, T/C (compound 0.1 µM) 90.8% and 96.3% and 99.1% | viability, T/C (compound 0.316 µM) 94.7% and 102% and 103% | viability, T/C (compound 1 µM) 71.9% and 107% and 96.1% | viability, T/C (compound 3.16 µM) 53.8% and 108% and 106% | viability, T/C (compound 10 µM) 20.2% and 54.8% and 54.9%

O=C(c1cc(Cc2n[nH]c(=O)c3ccccc23)ccc1F)N1CCN(C(=O)C2CC2)CC1
inactive: viability, T/C (compound 0.0316 µM) 90.9% and 100% and 96.4% | viability, T/C (compound 0.1 µM) 103% and 97.7% and 97.9% | viability, T/C (compound 0.316 µM) 94.8% and 86.2% and 99.2% | viability, T/C (compound 1 µM) 98.9% and 98.6% and 98.4% | viability, T/C (compound 3.16 µM) 123% and 104% and 94.1% | viability, T/C (compound 10 µM) 91.1% and 89.6% and 94.1%
> 10 µM: IC50 (curve of compound)

CC(C)(O)C1CCC(Nc2ccc3ncc(-c4cccc(C(F)(F)F)c4)n3n2)CC1 (stereo not drawn)
> 10 µM and 1.5 µM and 1.86 µM: IC50 (curve of compound)
inactive: viability, T/C (compound 0.0316 µM) 100% and 101% and 106% | viability, T/C (compound 0.1 µM) 76.5% and 92.8% and 98.9% | viability, T/C (compound 0.316 µM) 60.8% and 103% and 99.9% | viability, T/C (compound 1 µM) 57.9% and 71.8% and 90% | viability, T/C (compound 3.16 µM) 53.2% and 7.83% and 15.9% | viability, T/C (compound 10 µM) 49.5% and 12.5% and 13.8%

CCCS(=O)(=O)Nc1ccc(F)c(C(=O)c2c[nH]c3ncc(-c4ccc(Cl)cc4)cc23)c1F + Cc1cnc(CNC(=O)c2c(=O)c3ccc(N4CCCN(C)CC4)nc3n3c2sc2ccccc23)cn1
9.59 µM: IC50 [4]
inactive: viability, T/C [7] 97.5% | viability, T/C [8] 103% | viability, T/C [9] 103% | viability, T/C [10] 101% | viability, T/C [11] 101% | viability, T/C [12] 77.1% | viability, T/C [13] 96.9% | viability, T/C [14] 99.5% | viability, T/C [15] 99.7% | viability, T/C [16] 99.3% | viability, T/C [17] 99.1% | viability, T/C [18] 53.2% | viability, T/C [19] 84.4% | viability, T/C [20] 89.7% | viability, T/C [21] 90% | viability, T/C [22] 86.1% | viability, T/C [23] 88.1% | viability, T/C [24] 54% | viability, T/C [25] 78.4% | viability, T/C [26] 78.5% | viability, T/C [27] 78% | viability, T/C [28] 78.2% | viability, T/C [29] 83.8% | viability, T/C [30] 48.9% | viability, T/C [31] 70.9% | viability, T/C [32] 71.5% | viability, T/C [33] 70.8% | viability, T/C [34] 63.5% | viability, T/C [35] 68.1% | viability, T/C [36] 39.7% | viability, T/C [37] 60.8% | viability, T/C [38] 58.6% | viability, T/C [39] 70.2% | viability, T/C [40] 64.5% | viability, T/C [41] 57.5%
6.53 µM: IC50 [5]
> 10 µM: IC50 [1] | IC50 [2] | IC50 [3]
active: viability, T/C [42] 5.82%
3.76 µM: IC50 [6]

CCc1c2c(nc3ccc(O)cc13)-c1cc3c(c(=O)n1C2)COC(=O)[C@]3(O)CC
0.272 µM and 0.229 µM and 0.115 µM: IC50 (curve of compound)
inactive: viability, T/C (compound 0.000999 µM) 92.9% and 101% and 105% | viability, T/C (compound 0.00316 µM) 88.5% and 90.5% and 87.7% | viability, T/C (compound 0.00999 µM) 78.4% and 78.2% and 84.3% | viability, T/C (compound 0.0316 µM) 71.1% and 81.8% and 69.5% | viability, T/C (compound 0.0999 µM) 61.7% and 59.3% and 49.4% | viability, T/C (compound 0.316 µM) 47.6% and 44.7% and 36.1%

CN(C)c1ccc(Nc2c3ccc(NC(=O)CCN4CCCC4)cc3nc3cc(NC(=O)CCN4CCCC4)ccc23)cc1
> 10 µM: IC50 (compound alone, run of 04/22/2024)
inactive: viability, T/C (compound 0.0316 µM) 103% [middle of 12 runs] | viability, T/C (compound 0.1 µM) 99.9% [middle of 12 runs] | viability, T/C (compound 0.316 µM) 101% [middle of 12 runs] | viability, T/C (compound 3.16 µM) 104% [middle of 12 runs] | viability, T/C (compound 10 µM) 101% [middle of 12 runs]
